From patent US20230364025A1, “PROTEIN-RELEASE SYSTEM FOR SUSTAINED RELEASE OF PROTEINS” (THE GOVERNING COUNCIL OF THE UNIVERSITY OF TORONTO, priority 2022, published 2023)

Experiments:
hlgG1 = hlgG1 (Homo sapiens, UniProt P01857); conditions: interacting with hlgG1; Reese et al., 2020; cited from earlier work
bevacizumab = assay: Bio-layer interferometry binding of immobilized Fc-ligands to bevacizumab; conditions: biotinylated peptide immobilized at 100 nM on SAX biosensors
Procedure: (§1) Binding kinetic measurements were performed on the Octet RED96 system (ForteBio, CA) using single-use high-precision streptavidin biosensors (SAX). Assay buffer was defined as 1×PBS comprising 0.05% Tween-20 (PBST). Biotinylated peptides FcL-1 and FcL-2 were immobilized at 100 nM. Non-specific interactions were minimized by including a blocking step using SuperBlock prior to each baseline response. […] A double-referencing experiment was used to assess the binding interactions of Fc-noggin to both peptides. Peptides were immobilized in sample sensors while reference sensors were dipped in assay buffer. For association, the sample and reference sensors were dipped into Fc-noggin. All experiments included one biosensor dipped in assay buffer during association for background normalization.
(§2) Affinity interactions of the modified peptide ligands to different antibodies were evaluated via bio-layer interferometry. […] Dissociation constants between the binding pairs were determined using the Octet Data Analysis Software. […] A heterogeneous 2:1 ligand binding model was used for the evaluation of the equilibrium dissociation constants of the chosen peptide ligands to anti-sFRP2 or Fc-Noggin.

panitumumab = assay: Bio-layer interferometry binding of immobilized Fc-ligands to panitumumab; conditions: biotinylated peptide immobilized at 100 nM on SAX biosensors
Procedure: as §1, §2

anti-sFRP2 = assay: Bio-layer interferometry binding of immobilized Fc-ligands to anti-sFRP2; conditions: biotinylated peptide immobilized at 100 nM on SAX biosensors
Procedure: as §1, §2

Fc-Noggin = biological target: T1, Fc-Noggin (Mus musculus, UniProt P97466); assay: Bio-layer interferometry binding of immobilized Fc-ligands to Fc-Noggin; conditions: biotinylated peptide immobilized at 100 nM on SAX biosensors
T1 construct: Fc (immunoglobulin Fc region); purchased R&D systems
Procedure: as §1, §2

[1] = In vitro controlled release of proteins from HAKT-oxime gels, quantified by ELISA; assay type: physicochemical; conditions: for cumulative release: after 2 days
Procedure: HAKT and HAKT-FcL-1 were dissolved in PBS to yield a final HA content of 12.5 mg/mL with 0 or 100 molar excesses of peptide to protein and mixed with PEGOA4 at 80 mol %. […] Release media was defined as 1×PBS comprising 0.1 wt % bovine serum albumin and Roche cOmplete™ Protease Inhibitor Cocktail (1 tablet/ 10 mL, Roche, Switzerland). Protein release was evaluated by incubating HAKT-oxime gels with 400 μL of release media on an orbital shaker at 37° C. Supernatants were collected and replaced with fresh release media after 2 h, 6 h, 1 d, 2 d, 3 d, 5 d, and 7 d. HAKT-oxime hydrogels were digested after the last time point using 500 IU/mL hyaluronidase in 400 μL of PBS. Fc-Noggin concentrations were evaluated using a mouse Noggin ELISA (RayBiotech).
Subsequently, the wells were washed with 200 μL TPBS (1× PBS with 0.05% Tween 20) four times and blotted dry on paper towels. Standard and analyte samples were added to each well (100 μL) and incubated for 2.5 h at room temperature on an orbital shaker. The wells were then washed as previously described and blotted dry. […] 100 μL of anti-Fc antibody diluted at appropriate concentrations was added to each well and incubated for 1.5 h at room temperature. A solution of 3,3′,5,5′-Tetramethylbenzidine (TMB) was added (100 ul) to each well. […] Then, a stop solution comprising 2N H2SO4 (50 μL) was added to each well and the absorbance was measured at 450 nm. Protein concentration was determined using the linear range in the standard curve. Protein samples were diluted to fit within the linear range.

T1 sequence (P97466 with tags, fused parts or gaps): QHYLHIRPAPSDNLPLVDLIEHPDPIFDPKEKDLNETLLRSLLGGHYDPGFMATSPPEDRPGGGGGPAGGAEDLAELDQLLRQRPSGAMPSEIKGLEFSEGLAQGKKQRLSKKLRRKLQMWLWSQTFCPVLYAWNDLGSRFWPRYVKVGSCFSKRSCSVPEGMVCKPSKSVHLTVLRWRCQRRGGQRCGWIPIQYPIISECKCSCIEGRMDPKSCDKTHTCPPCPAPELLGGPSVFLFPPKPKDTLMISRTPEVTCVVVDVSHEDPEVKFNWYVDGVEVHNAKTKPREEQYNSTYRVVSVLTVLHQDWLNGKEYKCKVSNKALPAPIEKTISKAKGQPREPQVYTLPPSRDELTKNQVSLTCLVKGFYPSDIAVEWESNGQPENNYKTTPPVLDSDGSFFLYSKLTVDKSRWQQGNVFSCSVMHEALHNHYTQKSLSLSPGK
Chain of hlgG1 (P01857 1-328 limits assumed): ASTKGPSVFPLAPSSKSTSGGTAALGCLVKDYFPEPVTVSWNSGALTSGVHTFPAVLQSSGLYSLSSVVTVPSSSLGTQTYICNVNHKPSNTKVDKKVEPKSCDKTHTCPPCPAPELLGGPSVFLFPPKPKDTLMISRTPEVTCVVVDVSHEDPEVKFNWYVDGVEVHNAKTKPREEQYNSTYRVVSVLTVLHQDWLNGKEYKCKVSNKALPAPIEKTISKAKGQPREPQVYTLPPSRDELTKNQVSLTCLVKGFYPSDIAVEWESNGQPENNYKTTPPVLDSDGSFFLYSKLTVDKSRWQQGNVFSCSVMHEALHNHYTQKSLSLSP

Row | binding to bevacizumab (bevacizumab) | binding to panitumumab (panitumumab) | binding to anti-sFRP2 (anti-sFRP2) | binding to Fc-Noggin (Fc-Noggin) | Molecule | Kd (hlgG1) | controlled release from HAKT-gel ([1]; FcL-1 at 100-fold molar excess vs no peptide, 37° C., 7 days) | cumulative release ([1]; from HAKT-FcL1-oxime) | cumulative release ([1]; from HAKT-oxime (no peptide))
1 | – | – | – | – | HWRWGV | 14.2 µM | – | – | –
2 | shown to bind | shown to bind | shown to bind | shown to bind | CC(C)[C@H](NC(=O)[C@H](Cc1c[nH]c2ccccc12)NC(=O)CNC(=O)[C@H](CCCNC(=N)N)NC(=O)[C@H](Cc1c[nH]c2ccccc12)NC(=O)[C@@H](N)Cc1c[nH]cn1)C(=O)NCC(=O)N[C@@H](C)C(=O)N[C@@H](CCCCNC(=O)CCCC[C@@H]1SC[C@@H]2NC(=O)N[C@@H]21)C(=O)N[C@@H](CO)C(=O)N[C@@H](CCCCN)C(=O)NCC(=O)O [FcL1] | – | – | – | –
3 | demonstrated binding only to anti-sFRP2 | demonstrated binding only to anti-sFRP2 | demonstrated binding only to anti-sFRP2 | demonstrated binding only to anti-sFRP2 | (CFHH)2KGAKSKG [FcL2] | – | – | – | –
4 | – | – | – | – | bevacizumab: antibody against VEGF; Research Grade Bevacizumab Biosimilar | – | confirmed controlled release | 60% | approximately 100%
